Results: US20230190690A1, “[…] AND/OR […] FOR CORONAVIRUS DISEASE 2019 (COVID-19)” (NEOPHARMA JAPAN CO., LTD., priority 2020, published 2023)
Where two headings read alike, the source gives them in different places.

Legend:
[1] = tested on: SARS-CoV-2; assay: microbe, parasite or virus in culture; type: cell-based, SARS-CoV-2 (VeroE6, African green monkey kidney cells)
[2] = tested on: SARS-CoV-2; assay: microbe, parasite or virus in culture; type: cell-based, SARS-CoV-2 (Caco-2, human colon cancer cells)
[3] = tested on: coronavirus disease 2019 (COVID-19); assay: Treatment example: intake of supplement capsules by a patient with COVID-19 symptoms; type: in vivo, human; details: 1 patient; intake of capsules over two days
[4] = tested on: VeroE6 cells, Caco-2 cells; assay: Cytotoxic effect in VeroE6 and Caco-2 cells; type: cell-based; details: all concentration ranges tested (up to 2000 uM)
Protocol: In order to confirm the dose dependence in the inhibitory effect on SARS-CoV-2 infection and/or proliferation, the agents at each concentration were tested.

Compound	inhibitory effect on SARS-CoV-2 infection and/or proliferation, dose dependence ([1]; VeroE6 cells, FIG. 5)	SARS-CoV-2 infection and/or proliferation [2]	IC50 ([2]; Severe acute respiratory syndrome coronavirus 2, Caco-2 cells, FIG. 6, read-out: IC50 of inhibition of SARS-CoV-2 infection and/or proliferation)	various symptoms of coronavirus disease 2019 (COVID-19) [3]	cytotoxicity [4]	IC50 ([1]; Severe acute respiratory syndrome coronavirus 2, Vero C1008, VeroE6 cells, FIG. 5, read-out: IC50 of inhibition of SARS-CoV-2 infection and/or proliferation)	infection with SARS-CoV-2 ([1]; VeroE6, number of seeded cells 1×10^4 cells/well)
sodium ferrous citrate [SFC]	no inhibitory effect	–	–	–	–	–	–
NCC(=O)CCC(=O)O [5-ALA, 5-aminolevulinic acid]	–	strongly inhibited	39 µM	remarkably improved	did not show significant cytotoxicity	570 µM	significantly inhibited
